According to the NIST ThermoML archive (doi:10.1016/j.jct.2017.08.004):

Columns and labels:
[1] = for molar entropy: 101.33 kPa; for Normal melting temperature: DTA
[2] = Molar enthalpy of transition or fusion; conditions: Crystal; DSC

OC[C@@H](O)C(O)[C@H](O)CO [D-arabitol]
[1]
Conditions	molar entropy [J/K/mol]
1 K, Crystal, relaxation calorimetry	0.0005801
2 K, Crystal, relaxation calorimetry	0.002268
3 K, Crystal, relaxation calorimetry	0.006257
4 K, Crystal, relaxation calorimetry	0.01391
5 K, Crystal, relaxation calorimetry	0.02686
6 K, Crystal, relaxation calorimetry	0.04705
7 K, Crystal, relaxation calorimetry	0.07698
8 K, Crystal, relaxation calorimetry	0.1198
9 K, Crystal, relaxation calorimetry	0.179
10 K, Crystal, relaxation calorimetry	0.2576
15 K, Crystal, relaxation calorimetry	1.012
20 K, Crystal, relaxation calorimetry	2.431
25 K, Crystal, relaxation calorimetry	4.457
30 K, Crystal, relaxation calorimetry	6.97
35 K, Crystal, relaxation calorimetry	9.854
40 K, Crystal, relaxation calorimetry	13.02
45 K, Crystal, relaxation calorimetry	16.41
50 K, Crystal, relaxation calorimetry	19.95
55 K, Crystal, relaxation calorimetry	23.61
60 K, Crystal, relaxation calorimetry	27.36
65 K, Crystal, relaxation calorimetry	31.16
70 K, Crystal, relaxation calorimetry	35.01
75 K, Crystal, relaxation calorimetry	38.9
80 K, Crystal, relaxation calorimetry	42.79
85 K, Crystal, relaxation calorimetry	46.7
90 K, Crystal, relaxation calorimetry	50.61
95 K, Crystal, relaxation calorimetry	54.52
100 K, Crystal, relaxation calorimetry	58.42
110 K, Crystal, relaxation calorimetry	66.18
120 K, Crystal, relaxation calorimetry	73.87
130 K, Crystal, relaxation calorimetry	81.48
140 K, Crystal, relaxation calorimetry	89.01
150 K, Crystal, relaxation calorimetry	96.45
160 K, Crystal, relaxation calorimetry	103.81
170 K, Crystal, relaxation calorimetry	111.08
180 K, Crystal, relaxation calorimetry	118.28
190 K, Crystal, relaxation calorimetry	125.41
200 K, Crystal, relaxation calorimetry	132.48
210 K, Crystal, relaxation calorimetry	139.49
220 K, Crystal, relaxation calorimetry	146.44
230 K, Crystal, relaxation calorimetry	153.36
240 K, Crystal, relaxation calorimetry	160.23
250 K, Crystal, relaxation calorimetry	167.08
260 K, Crystal, relaxation calorimetry	173.89
270 K, Crystal, relaxation calorimetry	180.69
273.15 K, Crystal, relaxation calorimetry	182.82
280 K, Crystal, relaxation calorimetry	187.46
290 K, Crystal, relaxation calorimetry	194.23
298.15 K, Crystal, relaxation calorimetry	199.73
300 K, Crystal, relaxation calorimetry	200.98
305 K, Crystal, Small sample (50 mg) DSC	204.36
310 K, Crystal, Small sample (50 mg) DSC	207.75
315 K, Crystal, Small sample (50 mg) DSC	211.16
320 K, Crystal, Small sample (50 mg) DSC	214.58
325 K, Crystal, Small sample (50 mg) DSC	218.03
330 K, Crystal, Small sample (50 mg) DSC	221.5
335 K, Crystal, Small sample (50 mg) DSC	224.99
340 K, Crystal, Small sample (50 mg) DSC	228.51
345 K, Crystal, Small sample (50 mg) DSC	232.07
350 K, Crystal, Small sample (50 mg) DSC	235.68
355 K, Crystal, Small sample (50 mg) DSC	239.39
360 K, Crystal, Small sample (50 mg) DSC	243.37
365 K, Crystal, Small sample (50 mg) DSC	248.05
390 K, Liquid, Small sample (50 mg) DSC	369.2
395 K, Liquid, Small sample (50 mg) DSC	374.96
400 K, Liquid, Small sample (50 mg) DSC	380.58
405 K, Liquid, Small sample (50 mg) DSC	386.13
410 K, Liquid, Small sample (50 mg) DSC	391.63
415 K, Liquid, Small sample (50 mg) DSC	397.09
420 K, Liquid, Small sample (50 mg) DSC	402.53

Conditions	Normal melting temperature [°C]
[1], Crystal	99.23

Conditions	Molar enthalpy of transition or fusion [kcal/mol]
[2]	9.46

OC[C@@H](O)[C@@H](O)[C@H](O)[C@H](O)CO [D-mannitol]
[1]
Conditions	molar entropy [J/K/mol]
1 K, Crystal, relaxation calorimetry	0.000631
2 K, Crystal, relaxation calorimetry	0.002978
3 K, Crystal, relaxation calorimetry	0.008828
4 K, Crystal, relaxation calorimetry	0.02011
5 K, Crystal, relaxation calorimetry	0.03893
6 K, Crystal, relaxation calorimetry	0.06761
7 K, Crystal, relaxation calorimetry	0.1087
8 K, Crystal, relaxation calorimetry	0.165
9 K, Crystal, relaxation calorimetry	0.2395
10 K, Crystal, relaxation calorimetry	0.3351
15 K, Crystal, relaxation calorimetry	1.202
20 K, Crystal, relaxation calorimetry	2.796
25 K, Crystal, relaxation calorimetry	5.087
30 K, Crystal, relaxation calorimetry	7.955
35 K, Crystal, relaxation calorimetry	11.26
40 K, Crystal, relaxation calorimetry	14.89
45 K, Crystal, relaxation calorimetry	18.76
50 K, Crystal, relaxation calorimetry	22.8
55 K, Crystal, relaxation calorimetry	26.97
60 K, Crystal, relaxation calorimetry	31.23
65 K, Crystal, relaxation calorimetry	35.57
70 K, Crystal, relaxation calorimetry	39.94
75 K, Crystal, relaxation calorimetry	44.34
80 K, Crystal, relaxation calorimetry	48.76
85 K, Crystal, relaxation calorimetry	53.19
90 K, Crystal, relaxation calorimetry	57.61
95 K, Crystal, relaxation calorimetry	62.02
100 K, Crystal, relaxation calorimetry	66.42
110 K, Crystal, relaxation calorimetry	75.17
120 K, Crystal, relaxation calorimetry	83.84
130 K, Crystal, relaxation calorimetry	92.42
140 K, Crystal, relaxation calorimetry	100.91
150 K, Crystal, relaxation calorimetry	109.31
160 K, Crystal, relaxation calorimetry	117.62
170 K, Crystal, relaxation calorimetry	125.86
180 K, Crystal, relaxation calorimetry	134.02
190 K, Crystal, relaxation calorimetry	142.11
200 K, Crystal, relaxation calorimetry	150.14
210 K, Crystal, relaxation calorimetry	158.13
220 K, Crystal, relaxation calorimetry	166.06
230 K, Crystal, relaxation calorimetry	173.95
240 K, Crystal, relaxation calorimetry	181.8
250 K, Crystal, relaxation calorimetry	189.63
260 K, Crystal, relaxation calorimetry	197.43
270 K, Crystal, relaxation calorimetry	205.2
273.15 K, Crystal, relaxation calorimetry	207.65
280 K, Crystal, relaxation calorimetry	212.96
290 K, Crystal, relaxation calorimetry	220.71
298.15 K, Crystal, relaxation calorimetry	227.01
300 K, Crystal, relaxation calorimetry	228.44
305 K, Crystal, Small sample (50 mg) DSC	232.31
310 K, Crystal, Small sample (50 mg) DSC	236.19
315 K, Crystal, Small sample (50 mg) DSC	240.08
320 K, Crystal, Small sample (50 mg) DSC	243.99
325 K, Crystal, Small sample (50 mg) DSC	247.9
330 K, Crystal, Small sample (50 mg) DSC	251.82
335 K, Crystal, Small sample (50 mg) DSC	255.74
340 K, Crystal, Small sample (50 mg) DSC	259.67
345 K, Crystal, Small sample (50 mg) DSC	263.61
350 K, Crystal, Small sample (50 mg) DSC	267.55
355 K, Crystal, Small sample (50 mg) DSC	271.49
360 K, Crystal, Small sample (50 mg) DSC	275.43
365 K, Crystal, Small sample (50 mg) DSC	279.37
370 K, Crystal, Small sample (50 mg) DSC	283.31
375 K, Crystal, Small sample (50 mg) DSC	287.25
380 K, Crystal, Small sample (50 mg) DSC	291.19
385 K, Crystal, Small sample (50 mg) DSC	295.12
390 K, Crystal, Small sample (50 mg) DSC	299.04
395 K, Crystal, Small sample (50 mg) DSC	302.96
400 K, Crystal, Small sample (50 mg) DSC	306.87
405 K, Crystal, Small sample (50 mg) DSC	310.78
410 K, Crystal, Small sample (50 mg) DSC	314.68
415 K, Crystal, Small sample (50 mg) DSC	318.58
420 K, Crystal, Small sample (50 mg) DSC	322.47
425 K, Crystal, Small sample (50 mg) DSC	326.38
430 K, Crystal, Small sample (50 mg) DSC	330.31
435 K, Crystal, Small sample (50 mg) DSC	334.63
450 K, Liquid, Small sample (50 mg) DSC	463.49
455 K, Liquid, Small sample (50 mg) DSC	469.61
460 K, Liquid, Small sample (50 mg) DSC	475.21
465 K, Liquid, Small sample (50 mg) DSC	480.73
470 K, Liquid, Small sample (50 mg) DSC	486.2
475 K, Liquid, Small sample (50 mg) DSC	491.61
480 K, Liquid, Small sample (50 mg) DSC	496.96
485 K, Liquid, Small sample (50 mg) DSC	502.25
490 K, Liquid, Small sample (50 mg) DSC	507.49

Conditions	Normal melting temperature [°C]
[1], Crystal	167.47

Conditions	Molar enthalpy of transition or fusion [kcal/mol]
[2]	13.3
